11 molecules from ChEMBL document CHEMBL1201862, “PubChem BioAssay data set” (2004) can be followed below.

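These data come from cells grown in 96-well plates and exposed to compound for 48 hours at five concentrations. Abbreviation: GI50, concentration required for 50% inhibition of growth.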 Active and inactive are the calls of the source. Rule as the data show it: active = GI50 up to about 1.1 µM and inactive = higher.

Test systems include ACHN; BT-549; CCRF-CEM; HCC 2998; HCT-116; Hs-578T; LOX IMVI; MDA-MB-231; Malme-3M; NCI-H23; NCI-H460; OVCAR-8; PC-3; SK-MEL-28; SK-MEL-2; SN12C; SNB-19; U-251; HOP-92; NCI/ADR-RES.
Common to all, as to experiment: NCI-60 cell line screen, 48 h

As to `COc1ccc2c(c1)c(=O)c1c(NCCCN(C)CCCNc3ccc4c(=O)n(CCN(C)C)c(=O)n5c6ccc(OC)cc6c(=O)c3c45)ccc3c(=O)n(CCN(C)C)c(=O)n2c31`, the GI50 with ACHN was < 0.01 µM (active); in the assay on BT-549, 0.259 µM (active); with CCRF-CEM it was < 0.01 µM (active); with HCC 2998 it was < 0.01 µM (active); with HCT-116 it was < 0.01 µM (active); with Hs-578T, 0.105 µM (active). The GI50 was < 0.01 µM (active) in the assay on LOX IMVI; 0.0614 µM (active) in the assay with MDA-MB-231; 0.484 µM (active) in the assay on Malme-3M; < 0.0324 µM (active) with NCI-H23; < 0.01 µM (active) in the assay on NCI-H460; < 0.01 µM (active) in the assay with OVCAR-8. The GI50 in the assay on PC-3 was < 0.0147 µM (active); in the assay with SK-MEL-28, 0.415 µM (active); in the assay with SK-MEL-2, 0.514 µM (active); in the assay on SN12C, < 0.01 µM (active); with SNB-19 it was < 0.01 µM (active); in the assay on U-251 it was < 0.01 µM (active).

Consider `CCOc1cc(NC(C)=O)ccc1C(=O)NN1C(=O)C(Oc2ccccc2)C1c1ccc(O)c(OC)c1` (stereo not drawn), for which the GI50 with ACHN is 93.5 µM (inactive); in the assay with BT-549, 28.4 µM (inactive); in the assay on CCRF-CEM, 22.5 µM (inactive); in the assay with HCT-116 it was 52.4 µM (inactive); with HOP-92 it was 6.04 µM (inactive); in the assay on LOX IMVI, 29.8 µM (inactive). The GI50 was 34 µM (inactive) in the assay with MDA-MB-231; 30.8 µM (inactive) with NCI-H23; 37.4 µM (inactive) in the assay on NCI/ADR-RES; 22.1 µM (inactive) in the assay on OVCAR-8; 35.2 µM (inactive) with PC-3; 79.4 µM (inactive) in the assay on SK-MEL-28. Further, the GI50 is 26.9 µM (inactive) in the assay on SK-MEL-2, 28 µM (inactive) with SN12C, > 100 µM (inactive) in the assay with SNB-19 and 48.9 µM (inactive) in the assay with U-251.

Consider `COc1cc(NC(C)=O)ccc1C(=O)N/N=C/c1ccc(Cl)cc1Cl`, for which the GI50 was 31.4 µM (inactive) with ACHN; > 100 µM (inactive) in the assay on BT-549; 95.3 µM (inactive) in the assay with CCRF-CEM; 57.1 µM (inactive) with HCC 2998; 80.5 µM (inactive) in the assay with HCT-116; 35.4 µM (inactive) in the assay on HOP-92. In addition, the GI50 is 32.7 µM (inactive) in the assay on Hs-578T; 69.2 µM (inactive) with LOX IMVI; 57.1 µM (inactive) in the assay on Malme-3M; 71.9 µM (inactive) with NCI-H23; > 100 µM (inactive) in the assay with NCI/ADR-RES; 48.9 µM (inactive) in the assay on OVCAR-8. Besides, the GI50 in the assay on PC-3 was 34.8 µM (inactive); with SK-MEL-28, 59.4 µM (inactive); in the assay with SK-MEL-2, 19.2 µM (inactive); with SN12C, 22.4 µM (inactive); in the assay on SNB-19, 42.8 µM (inactive).

As to `N#Cc1c(N)c(C#N)c2c(c1-c1ccc(Cl)cc1)COc1ccccc1-2`, the GI50 is 13.7 µM (inactive) in the assay on ACHN; 29.9 µM (inactive) with BT-549; 16.5 µM (inactive) in the assay with CCRF-CEM; 17.4 µM (inactive) with HCC 2998; 12.2 µM (inactive) with HCT-116; 15.3 µM (inactive) in the assay on HOP-92. The GI50 with LOX IMVI is 29.7 µM (inactive); in the assay on MDA-MB-231, 24.2 µM (inactive); in the assay on Malme-3M it was 22 µM (inactive); in the assay on NCI-H23, 16.7 µM (inactive); in the assay with NCI-H460 it was 30.3 µM (inactive); in the assay with NCI/ADR-RES it was 20.9 µM (inactive). Also, the GI50 in the assay with PC-3 is 16.8 µM (inactive); in the assay on SK-MEL-28 it was 16.5 µM (inactive); in the assay on SK-MEL-2 it was 22 µM (inactive); in the assay with SN12C, 12.4 µM (inactive); with SNB-19, 14.5 µM (inactive); in the assay on U-251, 14.7 µM (inactive).

Take `Cc1cc2[nH]c3[nH]c(=O)[nH]c(=O)c3c2cc1C`: the GI50 in the assay with ACHN, in the assay on BT-549, in the assay with CCRF-CEM, in the assay on HCC 2998, in the assay on HCT-116 and with HOP-92 was > 100 µM (inactive) in each case. For the same molecule, the GI50 with Hs-578T is 69 µM (inactive); with LOX IMVI it was > 100 µM (inactive); with MDA-MB-231, 24.4 µM (inactive); with Malme-3M it was > 100 µM (inactive); in the assay with NCI-H23, > 100 µM (inactive); in the assay with NCI/ADR-RES it was > 100 µM (inactive). Also, the GI50 in the assay on OVCAR-8 was > 100 µM (inactive); in the assay on SK-MEL-2 it was 74.5 µM (inactive); in the assay on SN12C, > 100 µM (inactive); with SNB-19 it was 89.3 µM (inactive).

As to `Cc1nc2nn[nH]n2c(=O)c1CCO`, the GI50 in the assay on ACHN, with CCRF-CEM, in the assay with HCC 2998, in the assay with HCT-116, with HOP-92 and in the assay on Hs-578T was > 100 µM (inactive) throughout. For the same molecule, the GI50 in the assay on LOX IMVI, in the assay on MDA-MB-231, in the assay on Malme-3M, in the assay on NCI-H23, with NCI-H460 and in the assay with NCI/ADR-RES was > 100 µM (inactive) each time. The GI50 with OVCAR-8, in the assay with PC-3, with SK-MEL-28, in the assay with SK-MEL-2, in the assay on SN12C and in the assay with SNB-19 was > 100 µM (inactive) throughout. Moreover, in the assay with U-251, the GI50 was > 100 µM (inactive).

`N#CC(NNC(=O)c1c(Cl)c(Cl)c(Cl)c(Cl)c1-c1nc2cc(C(=O)c3ccccc3)ccc2[nH]1)c1cccc(Oc2ccccc2)c1` (stereo not drawn): the GI50 in the assay with ACHN was 25.6 µM (inactive); in the assay on BT-549 it was 19.1 µM (inactive); in the assay on CCRF-CEM, 15.6 µM (inactive); with HCT-116, 29.6 µM (inactive); in the assay on HOP-92, 17.5 µM (inactive); with LOX IMVI, 37.8 µM (inactive). Also, the GI50 with MDA-MB-231 is 19 µM (inactive); in the assay on NCI-H23, 26.4 µM (inactive); in the assay with NCI/ADR-RES, 19 µM (inactive); in the assay with OVCAR-8 it was 41.6 µM (inactive); in the assay with PC-3, 18.8 µM (inactive); in the assay with SK-MEL-28, 24.3 µM (inactive). Moreover, the GI50 in the assay with SK-MEL-2 was 20.5 µM (inactive); with SN12C it was 23.9 µM (inactive); in the assay with SNB-19 it was 26.6 µM (inactive); in the assay on U-251 it was 23.4 µM (inactive).

As to `Cc1ncc(CSC(=N)N)n1Cc1ccccc1`, the GI50 is > 100 µM (inactive) in the assay on ACHN; > 100 µM (inactive) in the assay on BT-549; 42.2 µM (inactive) in the assay with HCT-116; > 100 µM (inactive) in the assay on HOP-92; 95.7 µM (inactive) in the assay on Hs-578T; > 100 µM (inactive) with MDA-MB-231. The GI50 in the assay on Malme-3M is 54.5 µM (inactive); in the assay on NCI-H23 it was 65.8 µM (inactive); in the assay with NCI-H460, 88.3 µM (inactive); in the assay with NCI/ADR-RES it was > 100 µM (inactive); with OVCAR-8, > 100 µM (inactive); with PC-3, > 100 µM (inactive). Moreover, the GI50 is > 100 µM (inactive) in the assay on SK-MEL-28; > 100 µM (inactive) in the assay on SK-MEL-2; 43.5 µM (inactive) in the assay on SN12C; > 100 µM (inactive) in the assay with SNB-19; > 100 µM (inactive) with U-251.

On to `S=C(Nc1ccc(Cl)cc1)c1ccc(CN2CCCCC2)s1`, for which the GI50 is 4.93 µM (inactive) in the assay on ACHN; 8.26 µM (inactive) in the assay on BT-549; 3.17 µM (inactive) with CCRF-CEM; 7.16 µM (inactive) with HCC 2998; 1.8 µM (inactive) in the assay on HCT-116; 37.9 µM (inactive) with Hs-578T. Further, the GI50 in the assay on LOX IMVI is 2.48 µM (inactive); in the assay on NCI-H23 it was 3.35 µM (inactive); with NCI-H460 it was 4.62 µM (inactive); in the assay with NCI/ADR-RES, 16.8 µM (inactive); with OVCAR-8, 4.22 µM (inactive); with PC-3 it was 18.5 µM (inactive). Besides, the GI50 with SK-MEL-28 is 4.24 µM (inactive); with SK-MEL-2 it was 25.1 µM (inactive); in the assay on SN12C, 11.9 µM (inactive); in the assay on U-251, 10.1 µM (inactive).

Take `CC1(C)OCC2(CO1)CSCCCSCC1(COC(C)(C)OC1)CSCCCSC2`: the GI50 in the assay on BT-549, with CCRF-CEM, with HCC 2998, in the assay on HCT-116, with HOP-92 and with LOX IMVI was > 100 µM (inactive) each time. Besides, the GI50 in the assay with MDA-MB-231, with NCI-H23, in the assay on NCI-H460, in the assay with NCI/ADR-RES, in the assay on OVCAR-8 and in the assay on PC-3 was > 100 µM (inactive) in each case. Besides, the GI50 with SK-MEL-28, in the assay with SN12C, in the assay with SNB-19 and in the assay with U-251 was > 100 µM (inactive) each time.

Regarding `COC1(C)Cc2c(c(C)c(O)c3c2C(=O)C=C(Cl)C3=O)O1` (stereo not drawn), the GI50 in the assay with ACHN was 25.4 µM (inactive); with BT-549, > 100 µM (inactive); in the assay on CCRF-CEM it was 3.39 µM (inactive); in the assay with HCC 2998 it was > 100 µM (inactive); in the assay with HCT-116, 44.5 µM (inactive); in the assay with HOP-92, 18.9 µM (inactive). Besides, the GI50 with Hs-578T is 23.5 µM (inactive); in the assay on LOX IMVI, 44.8 µM (inactive); in the assay with MDA-MB-231, 16.1 µM (inactive); with Malme-3M, 13.5 µM (inactive); with NCI-H23, 66.8 µM (inactive); in the assay on NCI-H460, > 100 µM (inactive). Further, the GI50 in the assay with OVCAR-8 was 40.2 µM (inactive); in the assay with PC-3, > 100 µM (inactive); in the assay with SK-MEL-28 it was 39.7 µM (inactive); in the assay on SK-MEL-2, > 84.1 µM (inactive); in the assay on SN12C, > 65.6 µM (inactive); in the assay on SNB-19, > 100 µM (inactive). The GI50 in the assay with U-251 is > 75.5 µM (inactive).
